How the values were obtained:
IGF1R mRNA = assay: Oligonucleotide scanning array hybridisation with labelled transcript; assay type: binding, human; details: for Hybridisation to IGF1R mRNA on scanning array: 37° C. (and 23° C.); for Rel hyb intensity: relative to the most strongly hybridising sequence on the array; for Hyb intensity: scanning array probed with labelled IGF1R mRNA
Method: Scanning arrays complementary to the region of the IGF1R mRNA from position 537-685 were prepared using the standard techniques described in Southern E. M. et al., Nucleic Acids Res., 1994, 22(8): 1368-1373; and Sohail, M. and Southern, E. M. “Using oligonucleotide scanning arrays to find effective antisense reagents”, Methods in Molecular Biology, vol. 170: DNA Arrays: Methods and Protocols, Ed J. B. Rampal, Humana Press Inc., Totowa, N.J.
The scanning arrays comprise sets of oligonucleotides of various lengths. A series of oligonucleotides, complementary to the target mRNA, is made by sequential coupling of nucleotides to a solid surface. The DNA synthesis reagents are applied to a confined area on the surface of the solid support using a mask. The mask is shifted along the surface after each round of coupling, resulting in a series of oligonucleotides each complementary to a region of the target sequence.
• 2. Remove 1 μL for quantitation (see below). • 3. Remove unincorporated label by Sephadex® G25 column chromatography (see Note 11). • 4. Save 1 μL of the purified transcript for quantitation (see below). • 5. Check the integrity of the transcript by denaturing polyacrylamide gel electrophoresis (10). • 6. Add 10 μL of the scintillation fluid to the samples saved in Steps 2 and 4. • 7. Mix by vortexing and count the samples in a scintillation counter for 1 min. • 8. Calculate the percent incorporation: [formula] • 9. Calculate the amount of RNA made: [formula] Hybridisation to Arrays Made on Polypropylene • 1. Place the array in the hybridisation tube, coiling it in a spiral. • 2. Dilute the radiolabelled transcript in an appropriate volume (10-20 mL depending upon the size of the array and the hybridisation tube) of hybridisation buffer. The mix should cover the array along the length of the tube. • 3. Place items 1 and 2 in the oven at desired temperature for 30 min. Also put approximately 100 mL of the hybridisation buffer in the oven: this is to be used to wash the array at the end of hybridisation. • 4. Pour the hybridisation mix into the tube containing the array and hybridise for 3-4 h. • 5. Remove the hybridisation mix. Briefly wash the array with the hybridisation buffer from Step 3, air dry, cover with cling film and expose to a storage phosphor screen for 16-20 h (see Note 12). • 6. Scan the screen on PhosphorImager or STORM and analyse the image using xvseq (see below). Hybridisation to Arrays Made on Glass • 1. Clean the non-array glass plate with acetone and ethanol to ensure it is grease-free and siliconise it by treatment with dimethyl dichlorosilane solution and place it in lidded box. Also place moist paper towel in the box. • 2. Dilute the radiolabelled transcript in an appropriate volume of the hybridisation buffer (for example, for an array of 250 mm×50 mm use 500-750 μL). • 3. Place items 1 and 2 in an incubator at desired temprature for 30 min. Also put approximately 100 mL of the hybridisation buffer in the oven: this is to be used to wash the array at the end of hybridisation. • 4. Using a micropipette, pipette the hybridisation mix in a line evenly along the length of the non-array glass plate, avoiding formation of air bubbles. • 5. Starting at one end, carefully place the scanning array (face down) on top of the hybridisation mix. The mix will spread out and form a thin film between the two plates. Incubate for 3-4 h. • 6. Separate the plates from each other and wash the array plate with hybridisation buffer to remove unbound mix. Drain the plate, air dry, cover with cling film and expose to a storage phosphor screen for 16-20 h. • 7. Scan the screen on PhosphorImager or STORM and analyse the image using xvseq (see below). Alternative Hybridisation Protocol for Glass or Polypropylene • 1. Assemble with clips the array plate (or polypropylene array pasted with PhotoMount™ on a glass plate) and the non-array plate, using rubber tubing as spacers on two sides. • 2. […]

IGF1R = IGF1R level by immunoblotting in transfected MDA-231 cells; assay type: cell-based, human; details: for IGF1R Protein Level (% control): MDA-231 cells, 48 hr, vs scrambled control
Method: (§1) The human and murine cell lines used in this study were cultured in RPMI 1640 plus 10% FCS at 37° C. in a humidified atmosphere of 5% CO2. The cultures were negative when tested for Mycoplasma infection. Cultures were passaged the day before transfection to achieve 30-50% confluence the following day. Initial transfections of ASOs used 1-2.5 μg/ml Cytofectin (Glen Research, Sterling, Va.), according to the manufacturer's instructions. Latterly Oligofectamine (Life Sciences) has been used for all ASO and RNAi transfections. The method was as described (see manufacturer's instructions and www.dharmacon.com) with minor modifications. For transfection of monolayers seeded in 6 well plates, 5 μl phosphorothioate oligonucleotide or RNA duplex at 100× final concentration were mixed with 2501 serum-free Optimem (Gibco-BRL). In a separate tube 2 μl Oligofectamine was mixed with 68 μl Optimem. After 10 min incubation at room temperature the contents of the two tubes were mixed and incubated for a further 25 min at room temperature. Monolayers were washed with 1-2 ml Optimem. To the cells were added 175 μl Optimem followed by the 325 μl complexes. Volumes were scaled up by factors of 2.22 or 6.05 for transfection in 60 mm or 100 mm dishes respectively. Cultures were incubated at 37° C. for 4 hr, and then 50 μl FCS and 3.5 ml RPMI plus 5% FCS were added to each well. After 48 hr incubation effects on IGF1R and IR expression were determined by immunoblotting. Some transfected cultures were serum-starved overnight, divided into two aliquots and treated with 10 nM Long R3-IGF-I (GroPep, Adelaide) or diluent for 30 min at 37° C. prior to lysis.
(§2) IGF1R expression was assessed by immunoblotting as previously described (Macaulay et al 2001). After washing in ice-cold PBS, cells were lysed in 50 mM Hepes pH 7.5, 100 mM NaCl, 10 mM EDTA, 1% Triton-X-100, 4 mM sodium pyrophosphate, 2 mM sodium orthovanadate, 10 mM sodium fluoride, 1 mM PMSF, 2 μg/ml each leupeptin and aprotinin. Lysates were centrifuged for 15 minutes at 14,000 g, the protein concentration of supernatants was measured using BCA assay reagent (Pierce), and equivalent amounts of protein were separated on 7.5% SDS-PAGE gels and transferred to nitrocellulose. Target protein levels were assessed using antibodies to the β-subunit of the IGF1R or IR (Santa Cruz), phospho-Ser 473 Akt or total Akt (Cell Signalling, New England Biolabs) or β-tubulin (Sigma). Activated IGF1R was detected by immunoprecipitation for phosphotyrosine (P-Tyr-100, Cell Signaling Technology). Primary antibodies were detected with HRP-conjugated secondary antibodies (Dako), and ECL Plus (Amersham Pharmacia).
(§3) The ASOs and RNAi duplexes were transfected into MDA-231 cells (human ER negative breast cancer) using Cytofectin or Oligofectamine, as described above. After 48 hr the cells were lysed, and IGF1R and IR levels were measured by immunoblotting. The intensity of the autoradiographic bands was quantified by densitometry, and IGF1R (or IR) levels were corrected for loading differences. The specific IGF1R or IR results are presented as % IGF1R (or IR) level of that in cells transfected with the same concentration of an appropriate control. This was a scrambled control oligonucleotide for ASOs, and an inverted RNA duplex for RNAi.

MDA-MB-231 cells = assay: Clonogenic survival and post-irradiation survival (SF2) of transfected MDA-MB-231 cells; assay type: cell-based, human; details: MDA-MB-231, 100 nM
Method: FIG. 7 A) MDA-MB-231 cells transfected with 100 nM RNA duplexes were serum-starved overnight and treated with 50 nM IGF-I for 30 min. […] Results represent mean±sem of colony counts in triplicate dishes. Similar results were obtained in two further clonogenic assays. • C) Clonogenic survival of transfected MDA-MB-231 cells that were unirradiated or irradiated at 2Gy. The fraction surviving 2Gy irradiation (SF2) is shown as mean±sem of three independent assays.
The effect of transfection with 100 nM ASO4 or siRNA duplexes R4 and R5, equivalent to strongly and weakly hybridizing ASOs respectively, on colony forming efficiency and post-irradiation survival was also evaluated. […] This in turn illustrates the utility of hybridisation to the scanning ASO array in the selection of siRNA reagents, since relative hybridisation to the array is found to be predictive of activity in RNA interference and biological efficacy.

IR = IR level by immunoblotting in transfected MDA-231 cells; assay type: cell-based, human; details: for IR Protein Level (% control): 48 hr, vs scrambled control; for IR downregulation: TSS ASO at 300 nM; for Selectivity for IGF1R mRNA versus IR mRNA: compared with TSS ASO
Method: as §1, §2, §3

Substance	Hybridisation to IGF1R mRNA on scanning array (IGF1R mRNA)	IGF1R Protein Level (% control) (IGF1R; 30 nM ASO)	IGF1R Protein Level (% control) (IGF1R; 300 nM ASO)	Rel hyb intensity (IGF1R mRNA)	Hyb intensity (IGF1R mRNA)	IGF1R downregulation compared between 21mer duplexes (IGF1R; MDA-231 cells, 0.5, 5 and 50 nm (FIG. 5))	Survival after 2Gy irradiation (SF2) (MDA-MB-231 cells; 2Gy)	Clonogenic survival (MDA-MB-231 cells; unirradiated)	IR Protein Level (% control) (IR; 30 nM ASO)	IR Protein Level (% control) (IR; 300 nM ASO)	IR downregulation (IR)	Selectivity for IGF1R mRNA versus IR mRNA (IR)
ASO2 (20mer): phosphorothioate antisense oligonucleotide TGGTCTTCTCACACATCGGC, SEQ ID NO:7 (DNA, all phosphorothioate, methylation of C not given here)	hybridised strongly	84 ± 11 % control	47 ± 5 % control									
ASO5: phosphorothioate antisense oligonucleotide GTGGTCCAGCAGCGGTAGTT, SEQ ID NO:15 (DNA, all phosphorothioate, methylation of C not given here)	hybridised strongly			>0.07	>4150							
15mer: 15mer sequence described by Wraight et al. which falls within the region 537-685, gtgcagcagcggtag (DNA GTGCAGCAGCGGTAG; further chemistry not given here) [reference compound]				0.03	1695							
Mut2: R2 duplex with single base pair mutation GCCGAUGUGUGUGAAGACCTT / TTCGGCUACACACACUUCUGG, SEQ ID NO:28 (sense GCCGAUGUGUGUGAAGACCNN; chemistry not fully specified; one strand is listed 3' to 5')						partially, though not completely, blocked						
ASO4: phosphorothioate antisense oligonucleotide GCGGTAGTTGTACTCATTGT, SEQ ID NO:13 (DNA, all phosphorothioate, methylation of C not given here)	hybridised strongly	73 ± 2 % control	49 ± 2 % control	>0.59	>33,162		entirely non-specific	entirely non-specific	97 % control	92 % control	did not cause significant downregulation of IR	greater selectivity for IGF1R mRNA versus IR mRNA
ASO1 (20mer): phosphorothioate antisense oligonucleotide CGGCTTCTCCTCCATGGTCC, SEQ ID NO:2 (DNA, all phosphorothioate, methylation of C not given here)	hybridised strongly	66 ± 23 % control	38 ± 6 % control						112 % control	135 % control	did not cause significant downregulation of IR	greater selectivity for IGF1R mRNA versus IR mRNA
ASO3: phosphorothioate antisense oligonucleotide ATTGTTGATGGTGGTCTTCT, SEQ ID NO:11 (DNA, all phosphorothioate, methylation of C not given here)	hybridises only at 23 °C	105 ± 18 % control	104 ± 22 % control	>0.13	>7048							
